Active and inactive are the calls of the source. The calls are words filed in the database; no cut-off is given here.
Experiments:
[1] = biological target: T1, Peroxisome proliferator-activated receptor alpha (Homo sapiens) (UniProt Q07869); experiment: Agonist activity at PPAR-alpha (unknown origin) expressed in CV-1 cells co-transfected with tk-PPRE-luciferase vector at 10 uM after 24 hrs by transactivation assay relative to GW7647; type: cell-based
T1 sequence (whole entry): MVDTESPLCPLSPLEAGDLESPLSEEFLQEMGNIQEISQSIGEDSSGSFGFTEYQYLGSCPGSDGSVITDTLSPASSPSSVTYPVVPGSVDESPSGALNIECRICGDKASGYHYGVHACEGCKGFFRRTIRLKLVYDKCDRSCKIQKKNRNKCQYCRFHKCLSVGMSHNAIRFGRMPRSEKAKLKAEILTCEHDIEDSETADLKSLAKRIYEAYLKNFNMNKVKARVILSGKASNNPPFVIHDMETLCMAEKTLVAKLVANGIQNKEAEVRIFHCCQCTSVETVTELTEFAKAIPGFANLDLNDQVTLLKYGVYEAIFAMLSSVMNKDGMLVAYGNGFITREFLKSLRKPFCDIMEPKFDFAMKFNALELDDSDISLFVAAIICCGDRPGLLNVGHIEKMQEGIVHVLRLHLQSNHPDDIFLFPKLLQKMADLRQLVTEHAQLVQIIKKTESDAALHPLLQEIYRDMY

[2] = biological target: T2, Peroxisome proliferator-activated receptor gamma (Homo sapiens) (UniProt P37231); experiment: Agonist activity at PPAR-gamma (unknown origin) expressed in CV-1 cells co-transfected with tk-PPRE-luciferase vector at 10 uM after 24 hrs by transactivation assay relative to rosiglitazone; type: cell-based
T2 sequence (whole entry): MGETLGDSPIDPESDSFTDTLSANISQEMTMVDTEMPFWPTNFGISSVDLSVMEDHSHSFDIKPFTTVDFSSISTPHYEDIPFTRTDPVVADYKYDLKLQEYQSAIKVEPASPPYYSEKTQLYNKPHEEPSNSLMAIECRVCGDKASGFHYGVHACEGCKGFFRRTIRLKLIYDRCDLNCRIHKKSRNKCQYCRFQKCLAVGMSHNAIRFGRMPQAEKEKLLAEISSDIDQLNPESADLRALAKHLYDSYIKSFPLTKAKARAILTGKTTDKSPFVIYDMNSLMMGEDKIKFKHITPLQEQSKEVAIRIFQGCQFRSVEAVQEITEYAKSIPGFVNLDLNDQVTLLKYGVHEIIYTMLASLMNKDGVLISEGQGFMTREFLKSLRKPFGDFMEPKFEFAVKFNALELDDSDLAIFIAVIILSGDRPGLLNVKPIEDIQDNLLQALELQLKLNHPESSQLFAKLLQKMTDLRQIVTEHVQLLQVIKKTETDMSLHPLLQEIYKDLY

[3] = biological target: T3, Peroxisome proliferator-activated receptor delta (Homo sapiens) (UniProt Q03181); experiment: Agonist activity at PPAR-delta (unknown origin) expressed in HEK293t cells co-transfected with tk-PPRE-luciferase vector at 10 uM after 24 hrs by transactivation assay relative to GW0742; type: cell-based; conditions: HEK-293T
T3 sequence (whole entry): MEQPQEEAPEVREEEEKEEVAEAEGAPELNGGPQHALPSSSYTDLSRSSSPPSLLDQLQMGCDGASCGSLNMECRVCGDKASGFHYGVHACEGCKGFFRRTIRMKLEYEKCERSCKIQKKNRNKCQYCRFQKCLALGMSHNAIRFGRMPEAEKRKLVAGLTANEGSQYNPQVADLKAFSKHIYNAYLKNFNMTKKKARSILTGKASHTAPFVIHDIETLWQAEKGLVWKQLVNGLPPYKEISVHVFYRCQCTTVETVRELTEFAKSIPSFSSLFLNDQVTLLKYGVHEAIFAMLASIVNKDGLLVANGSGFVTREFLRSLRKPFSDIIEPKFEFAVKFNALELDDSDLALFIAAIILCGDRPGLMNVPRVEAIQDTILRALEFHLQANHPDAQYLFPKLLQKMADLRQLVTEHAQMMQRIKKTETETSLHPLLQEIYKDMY

[4] = biological target: T4, Peroxisome proliferator-activated receptor delta (Homo sapiens, UniProt Q03181); experiment: Agonist activity at PPAR-delta (unknown origin) expressed in HEK293t cells co-transfected with tk-PPRE-luciferase vector after 24 hrs by transactivation assay; type: cell-based, HEK-293T
T4 sequence (Q03181 whole entry): T3 sequence (whole entry)

[5] = Retention time of the compound by HPLC analysis; type: physicochemical
[6] = biological target: T5, Peroxisome proliferator-activated receptor alpha (Homo sapiens, UniProt Q07869); experiment: Agonist activity at PPAR-alpha (unknown origin) expressed in CV-1 cells co-transfected with tk-PPRE-luciferase vector after 24 hrs by transactivation assay; type: cell-based
T5 sequence (Q07869 whole entry): T1 sequence (whole entry)

[7] = biological target: T6, Peroxisome proliferator-activated receptor gamma (Homo sapiens, UniProt P37231); experiment: Agonist activity at PPAR-gamma (unknown origin) expressed in CV-1 cells co-transfected with tk-PPRE-luciferase vector after 24 hrs by transactivation assay; type: cell-based
T6 sequence (P37231 whole entry): T2 sequence (whole entry)

Liver microsome [8] = experiment: Metabolic stability in human liver microsomes at 1 uM after 30 mins measured under phase 1 reaction by LC/MS/MS analysis; type: ADME; conditions: 0.5 h
[9] = Metabolic stability in mouse liver microsomes at 1 uM after 30 mins measured under phase 1 reaction by LC/MS/MS analysis; type: ADME; conditions: 0.5 h
Liver microsome [10] = experiment: Metabolic stability in human liver microsomes at 1 uM after 30 mins measured under phase 2 reaction by LC/MS/MS analysis; type: ADME; conditions: 0.5 h
[11] = Metabolic stability in mouse liver microsomes at 1 uM after 30 mins measured under phase 2 reaction by LC/MS/MS analysis; type: ADME; conditions: 0.5 h
Mus musculus [12] = experiment: Effect on body weight in C57BLKS/J-Lepr/Lepr db/db mouse at 3 to 10 mg/kg, po qd for 18 days administered via gavage; type: ADME, organism-based; conditions: in vivo, 432 h
Mus musculus [13] = experiment: Decrease in fasting blood glucose level in C57BLKS/J-Lepr/Lepr db/db mouse at 3 to 10 mg/kg, po qd for 18 days administered via gavage by ELISA; type: functional, organism-based
Mus musculus [14] = experiment: Decrease in serum insulin level in C57BLKS/J-Lepr/Lepr db/db mouse at 3 to 10 mg/kg, po qd for 18 days administered via gavage by ELISA; type: functional, organism-based
Mus musculus [15] = experiment: Decrease in serum Hb1Ac level in C57BLKS/J-Lepr/Lepr db/db mouse at 3 to 10 mg/kg, po qd for 18 days administered via gavage by ELISA; type: functional, organism-based
Mus musculus [16] = experiment: Decrease in triglyceride content in C57BLKS/J-Lepr/Lepr db/db mouse liver at 3 mg/kg, po administered via gavage by hematoxylin-eosin staining; type: functional
Mus musculus [17] = experiment: Decrease in size of adipocytes in C57BLKS/J-Lepr/Lepr db/db mouse white adipose tissue at 10 mg/kg, po administered via gavage by hematoxylin-eosin staining relative to untreated control; type: functional
Mus musculus [18] = experiment: Decrease in size of adipocytes in C57BLKS/J-Lepr/Lepr db/db mouse white adipose tissue at 10 mg/kg, po administered via gavage by hematoxylin-eosin staining relative to rosiglitazone-treated control; type: functional
Mus musculus [19] = experiment: Increase in body weight in C57BLKS/J-Lepr/Lepr db/db mouse at 10 mg/kg, po qd for 18 days administered via gavage measured on day 16 relative to untreated control; type: ADME, organism-based; conditions: in vivo, 432 h
Mus musculus [20] = experiment: Decrease in fasting blood glucose level in C57BLKS/J-Lepr/Lepr db/db mouse at 10 mg/kg, po qd for 18 days administered via gavage by ELISA; type: functional, organism-based
Mus musculus [21] = experiment: Decrease in serum insulin level in C57BLKS/J-Lepr/Lepr db/db mouse at 10 mg/kg, po qd for 18 days administered via gavage by ELISA; type: functional, organism-based
Mus musculus [22] = experiment: Decrease in serum Hb1Ac level in C57BLKS/J-Lepr/Lepr db/db mouse at 10 mg/kg, po qd for 18 days administered via gavage by ELISA; type: functional, organism-based
Mus musculus [23] = experiment: Increase in triglyceride content in C57BLKS/J-Lepr/Lepr db/db mouse liver at 10 mg/kg, po administered via gavage by hematoxylin-eosin staining; type: functional

| Emax [1] | Emax [2] | Emax [3] | EC50 [4] | Retention_time [5] | SMILES | also measured |
| --- | --- | --- | --- | --- | --- | --- |
| 34.3% | 92.7% | 133% | 0.75 µM | 23.205 min | O=C(O)Cc1cn(Cc2ccc(F)cc2)c2ccc(OCCCOc3cccc(OCc4ccc(Cl)cc4)c3)cc12 | – |
| 26.5% | 130% | 90.2% | 9.4 µM | 18.125 min | Cc1ccc(COc2cccc(OCCCOc3ccc4c(CC(=O)O)cn(Cc5ccccc5)c4c3)c2)cc1 | EC50 [6]: 19.2 µM; EC50 [7]: 1300 nM; Stability (Liver microsome [8]): Stable; Stability [9]: Stable; Stability (Liver microsome [10]): Stable; Stability [11]: Stable |
| 10.9% | 36.5% | 13.2% | – | 8.19 min | Cc1cccc(OCCOc2ccc3c(c2)c(CC(=O)O)cn3Cc2ccccc2)c1 | – |
| 30.4% | 94.6% | 95.5% | – | 14.199 min | O=C(O)Cc1cn(Cc2ccccc2)c2ccc(OCCCOc3cccc(OCc4ccccc4)c3)cc12 | – |
| 59.2% | 106% | 37.9% | – | 9.322 min | O=C(O)Cc1c[nH]c2ccc(OCCCOc3cccc(Oc4ccc(Cl)cc4)c3)cc12 | – |

More lines, now with the values behind:

| SMILES | Emax [1] | Emax [2] | Emax [3] | EC50 [4] | Retention_time [5] | also measured |
| --- | --- | --- | --- | --- | --- | --- |
| COc1ccc(COc2cccc(OCCOc3ccc4c(c3)c(CC(=O)O)cn4Cc3ccccc3)c2)cc1 | 25.8% | 90.9% | 122% | 6.3 µM | 10.127 min | EC50 [6]: 5.9 µM; EC50 [7]: 1900 nM; Stability (Liver microsome [8]): Unstable; Stability [9]: Stable |
| Cc1ccc(COc2cccc(OCCCOc3ccc4[nH]cc(CC(=O)O)c4c3)c2)cc1 | 69.3% | 134% | 84.1% | 7.2 µM | 8.984 min | EC50 [6]: 13.8 µM; EC50 [7]: 1700 nM; Stability (Liver microsome [8]): Stable; Stability [9]: Stable |
| O=C(O)Cc1cn(Cc2ccccc2)c2ccc(OCCCOc3cccc(OCc4ccc(Cl)cc4)c3)cc12 | 31.2% | 100% | 82% | 2.2 µM | 24.111 min | EC50 [6]: 8.6 µM; EC50 [7]: 500 nM; Stability (Liver microsome [8]): Stable; Stability [9]: Stable; Stability (Liver microsome [10]): Stable; Stability [11]: Stable; Activity (Mus musculus [12]): Non-toxic; inhibition (Mus musculus [13]): Active; inhibition (Mus musculus [14]): Active; inhibition (Mus musculus [15]): Active; inhibition in vivo at 3 mg/kg (Mus musculus [16]): 24%; inhibition in vivo at 10 mg/kg (Mus musculus [17]): 18%; inhibition in vivo at 10 mg/kg (Mus musculus [18]): 36% |
| CN(CCOc1ccc(CC2SC(=O)NC2=O)cc1)c1ccccn1 (stereo not drawn) [ROSIGLITAZONE] | – | – | – | – | – | increase (Mus musculus [19]): 10%; inhibition (Mus musculus [20]): Active; inhibition (Mus musculus [21]): Active; inhibition (Mus musculus [22]): Active; Activity (Mus musculus [23]): 22% |
| Cc1ccc(COc2ccccc2OCCCOc2ccc3[nH]cc(CC(=O)O)c3c2)cc1 | 41.2% | 73.4% | 35.2% | – | 7.257 min | – |
| Cc1ccc(COc2ccccc2OCCCOc2ccc3c(c2)c(CC(=O)O)cn3Cc2ccccc2)cc1 | 26.7% | 75.1% | 68.9% | – | 14.49 min | – |
| Cc1cccc(OCCOc2ccc3[nH]cc(CC(=O)O)c3c2)c1 | 21.8% | 31.3% | 27.9% | – | 4.444 min | – |
| Cc1ccc(Oc2cccc(OCCCOc3ccc4c(c3)c(CC(=O)O)cn4Cc3ccccc3)c2)cc1 | 33.3% | 119% | 69.1% | – | 23.472 min | – |
| O=C(O)Cc1cn(Cc2ccccc2)c2ccc(OCCCOc3cccc(OCc4ccc(C(F)(F)F)cc4)c3)cc12 | 12.2% | 77.9% | 87.4% | – | 24.08 min | – |
| Cc1ccc(COc2ccc(OCCCOc3ccc4c(c3)c(CC(=O)O)cn4Cc3ccccc3)cc2)cc1 | 18.9% | 92.6% | 93.6% | – | 21.33 min | – |

Reference: ChEMBL document CHEMBL3596146, “Design, synthesis, and biological evaluation of a series of alkoxy-3-indolylacetic acids as peroxisome proliferator-activated receptor γ/δ agonists” (Bioorg Med Chem, 2015)
